Measurements reported in patent US5234949A (Academic Pharmaceuticals, Inc., priority 1992, dated 1993).
Like-named read-outs stand apart in the source and are kept apart here.

Tests used:
[1] = test system: Coronary Occlusion (Rat); assay: Antiarrhythmic effects following coronary occlusion; format: in vivo
[2] = administered intravenously; cited from earlier work
[3] = test system: dog; conditions: in vivo; cited from earlier work

| Compound | solution behaviour (0.05 to 0.1M acetate buffer, pH 3.5 to 3.8, about 25 to 50 mg/ml, room temperature, extended period) | solution behaviour (0.2M acetate buffer, same pH range, after cooling) | solution behaviour (pH above 4.0, room temperature) | solution behaviour (phosphate buffer, 0.1M, on cooling) | dose-dependent suppression of arrhythmias vs saline control group [1] | onset of action; hemodynamic and electrophysiological effect [2] | blood pressure effect [3] | cardiac effect [3] |
| --- | --- | --- | --- | --- | --- | --- | --- | --- |
| CCCCc1oc2ccccc2c1C(=O)c1cc(I)c(OCCN(CC)CC)c(I)c1 [Amiodarone, 2-n-butyl-3-(3,5-diiodo-4-β-N-diethylaminoethoxybenzoyl) benzofuran] | remains in solution | formed a gel after cooling | a gel formed at room temperature | gel formation occurred at all pH's | significantly different than that seen with the saline control group | rapid onset of action causing profound hemodynamic and electrophysiological effect |  |  |
| Tween-80 |  |  |  |  |  |  | causes hypotension | potent cardiac depressant |
